Measured values published in patent US20240165243A1, “EGFR DEGRADERS AND METHODS OF USE” (BeiGene Switzerland GmbH, priority 2021, published 2024).

Columns and labels:
Type in all cases: cell-based
EGFR (L858R/T790M/C797S) = EGFR (L858R/T790M/C797S) (Homo sapiens, UniProt P00533, C797S/L858R/T790M); assay: Cell degradation HTRF assay, BaF3-LTC cells; parameters: expressed in transfected cells; host or cells: BaF3-LTC; settings: 16 h treatment; for DC50: HTRF; for Dmax: maximum percentage of degradation
Sequence of EGFR (L858R/T790M/C797S) (P00533 25-1210 T790M/C797S/L858R): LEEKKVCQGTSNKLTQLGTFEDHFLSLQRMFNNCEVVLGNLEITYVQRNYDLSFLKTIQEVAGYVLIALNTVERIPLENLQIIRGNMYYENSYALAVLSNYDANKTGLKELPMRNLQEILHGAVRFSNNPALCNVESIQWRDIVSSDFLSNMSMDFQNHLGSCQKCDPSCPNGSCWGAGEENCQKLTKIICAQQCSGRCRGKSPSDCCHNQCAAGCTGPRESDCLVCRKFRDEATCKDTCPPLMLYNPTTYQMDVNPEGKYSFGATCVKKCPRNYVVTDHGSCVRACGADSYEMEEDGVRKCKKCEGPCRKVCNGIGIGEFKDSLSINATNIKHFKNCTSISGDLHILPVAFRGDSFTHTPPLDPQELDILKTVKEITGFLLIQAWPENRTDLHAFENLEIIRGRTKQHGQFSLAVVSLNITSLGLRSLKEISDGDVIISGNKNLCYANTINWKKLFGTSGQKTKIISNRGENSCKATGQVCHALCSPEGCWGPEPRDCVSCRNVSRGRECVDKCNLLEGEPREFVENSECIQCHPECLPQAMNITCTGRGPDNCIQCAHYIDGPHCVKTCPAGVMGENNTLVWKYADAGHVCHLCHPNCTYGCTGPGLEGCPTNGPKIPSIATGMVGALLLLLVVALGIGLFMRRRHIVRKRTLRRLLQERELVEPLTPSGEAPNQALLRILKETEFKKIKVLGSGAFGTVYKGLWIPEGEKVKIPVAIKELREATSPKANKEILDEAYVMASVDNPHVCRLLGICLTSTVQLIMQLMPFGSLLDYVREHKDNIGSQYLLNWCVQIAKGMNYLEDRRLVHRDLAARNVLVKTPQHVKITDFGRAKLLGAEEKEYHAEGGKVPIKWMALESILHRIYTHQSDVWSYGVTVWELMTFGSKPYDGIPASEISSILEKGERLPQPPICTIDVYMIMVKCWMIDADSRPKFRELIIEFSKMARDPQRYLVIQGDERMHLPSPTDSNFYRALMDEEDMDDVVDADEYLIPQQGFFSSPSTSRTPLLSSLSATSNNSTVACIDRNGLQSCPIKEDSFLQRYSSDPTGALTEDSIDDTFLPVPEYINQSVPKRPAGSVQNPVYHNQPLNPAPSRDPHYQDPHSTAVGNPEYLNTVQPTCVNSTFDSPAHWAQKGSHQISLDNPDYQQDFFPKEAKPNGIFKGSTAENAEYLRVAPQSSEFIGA
Experimental: (§1) Cell Degradation of Example 1-28
(§2) BaF3-LTC (L858R/T790M/C797S) and BaF3-DTC (Del19/T790M/C797S) cells are treated with compounds diluted in 0.2% DMSO cell culture medium and incubate for 16 h, 37° C., 5% CO2. The final concentration of compounds in all assay is start with 10 uM, 4-fold dilution, total 8 doses were included.
(§3) After 16 h treatment, add HTRF lysis buffer to each well; seal the plate and incubate 1 hour at room temperature on a plate shaker; Once the cells are lysed, 16 μL of cell lysate are transferred to a PE 384-well HTRF detection plate; 4 μL of pre-mixed HTRF antibodies are added to each well; Cover the plate with a plate sealer, spin 1000 rpm for 1 min, Incubate overnight at room temperature; Read on BMG PheraStar with HTRF protocol (337 nm-665 nm-620 nm). The inhibition (degradation) percentage of the compound was calculated by the following equation:
(§4) Inhibition percentage of Compound=100−100×(Signal−low control)/(High control−low control), wherein signal=each test compound group.
(§5) High control=Cell group with added DMSO and without compound, indicating microplate readings without EGFR degradation;
(§6) Dmax is the maximum percentage of inhibition (degradation).
(§7) The IC50 (DC50) value of a compound can be obtained by fitting the following equation
(§8) Y=Bottom+(TOP−Bottom)/(1+((C50/X)^hillslope))
(§9) Wherein, X and Y are known values, and IC50, Hillslope, Top and Bottom are the parameters obtained by fitting with software. Y is the inhibition percentage (calculated from the equation), X is the concentration of the compound; IC50 is the concentration of the compound when the 50% inhibition is reached. The smaller the IC50 value is, the stronger the inhibitory ability of the compound is. Vice versa, the higher the IC50 value is, the weaker the ability the inhibitory ability of the compound is; Hillslope represents the slope of the fitted curve, generally around 1*; Bottom represents the minimum value of the curve obtained by data fitting, which is generally 000±20%; Top represents the maximum value of the curve obtained by data fitting, which is generally 100%±20%. The experimental data were fitted by calculating and analyzing with Dotmatics data analysis software. When Dmax<50%, DC50 will be automatically assigned as larger than […].

EGFR (Del19/T790M/C797S) [1] = assay: Cell degradation HTRF assay, BaF3-DTC cells; settings: 16 h treatment; for DC50: HTRF; for DTC Dmax (%): maximum percentage of degradation
Experimental: as §1, §2, §3, §4, §5, §6, §7, §8, §9

EGFR (Del19/T790M/C797S) [2] = assay: Cell degradation HTRF assay, H1975-clone #28 cells; settings: H1975-clone #28 (Del19/T790M/C797S) cells, 16 h treatment; for DC50: HTRF, read-out: H1975-clone#28 DTC DC50; for H1975-clone#28 DTC Dmax (%): maximum percentage of degradation
Summary of the method: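 H1975 clones #25 and #28 were treated 16 h at 37° C, 5% CO2 with 8 doses (top 10 uM, 5-fold dilution) in 0.2% DMSO medium. EGFR in lysates read by HTRF (665/620 nm); degradation % relative to DMSO high control; DC50 from 4-parameter fit, Dmax = maximal degradation.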

| SMILES | DC50 (EGFR (L858R/T790M/C797S)) [nM] | Dmax (EGFR (L858R/T790M/C797S)) [%] | DC50 (EGFR (Del19/T790M/C797S) [1]) [nM] | DTC Dmax (%) (EGFR (Del19/T790M/C797S) [1]) | DC50 (EGFR (Del19/T790M/C797S) [2]) [nM] | H1975-clone#28 DTC Dmax (%) (EGFR (Del19/T790M/C797S) [2]) |
| --- | --- | --- | --- | --- | --- | --- |
| CCc1cc(Nc2ncc(Br)c(Nc3cnc4c(C)cccc4c3P(C)(C)=O)n2)c(OC)cc1N1CCC(N2CCN(CCc3cc(F)c(C4CCC(=O)NC4=O)c(F)c3)CC2)CC1 (stereo not drawn) [Example 10, 3-(4-(2-(4-(1-(4-((5-bromo-4-((4-(dimethylphosphoryl)-8-methylquinolin-3-yl)amino)pyrimidin-2-yl)amino)-2-ethyl-5-methoxyphenyl)piperidin-4-yl)piperazin-1-yl)ethyl)-2,6-difluorophenyl)piperidine-2,6-dione] | 219 | 88.4 | 24.8 | 88.58 |  |  |
| CCc1cc(Nc2ncc(Br)c(Nc3cnc4ccccc4c3P(C)(C)=O)n2)c(OC)cc1N1CCC(N2CCN(C(=O)C3CN(c4cc(F)c(C5CCC(=O)NC5=O)c(F)c4)C3)CC2)CC1 (stereo not drawn) [Example 20, 3-(4-(3-(4-(1-(4-((5-bromo-4-((4-(dimethylphosphoryl)quinolin-3-yl)amino)pyrimidin-2-yl)amino)-2-ethyl-5-methoxyphenyl)piperidin-4-yl)piperazine-1-carbonyl)azetidin-1-yl)-2,6-difluorophenyl)piperidine-2,6-dione] | 19.5 | 89.5 | 4.65 | 96.7 |  |  |
| CCc1cc(Nc2ncc(Br)c(Nc3cnc4ccccc4c3P(C)(C)=O)n2)c(OC)cc1N1CCC(N2CCN(CCc3cccc4c3cnn4C3CCC(=O)NC3=O)CC2)CC1 (stereo not drawn) [Example 12, 3-(4-(2-(4-(1-(4-((5-bromo-4-((4-(dimethylphosphoryl)quinolin-3-yl)amino)pyrimidin-2-yl)amino)-2-ethyl-5-methoxyphenyl)piperidin-4-yl)piperazin-1-yl)ethyl)-1H-indazol-1-yl)piperidine-2,6-dione] | 68.8 | 89.1 | 14.4 | 91.82 |  |  |
| CCc1cc(Nc2ncc(Br)c(Nc3cnc4ccccc4c3P(C)(C)=O)n2)c(OC)cc1N1CCC(N2CCN(CCc3cccc4c3n(C)c(=O)n4C3CCC(=O)NC3=O)CC2)CC1 (stereo not drawn) [Example 21, 3-(4-(2-(4-(1-(4-((5-bromo-4-((4-(dimethylphosphoryl)quinolin-3-yl)amino)pyrimidin-2-yl)amino)-2-ethyl-5-methoxyphenyl)piperidin-4-yl)piperazin-1-yl)ethyl)-3-methyl-2-oxo-2,3-dihydro-1H-benzo[d]imidazol-1-yl)piperidine-2,6-dione] | 5.02 | 93.3 | 1.11 | 94.17 |  |  |
| CCc1cc(Nc2ncc(Br)c(Nc3cnc4ccccc4c3P(C)(C)=O)n2)c(OC)cc1N1CCC(N2CCN(CCc3ccc(C4CCC(=O)NC4=O)c(F)c3)CC2)CC1 (stereo not drawn) [Example 2, 3-(4-(2-(4-(1-(4-((5-bromo-4-((4-(dimethylphosphoryl)quinolin-3-yl)amino)pyrimidin-2-yl)amino)-2-ethyl-5-methoxyphenyl)piperidin-4-yl)piperazin-1-yl)ethyl)-2-fluorophenyl)piperidine-2,6-dione] | 146 | 85 | 18.5 | 86.75 |  |  |
| CCc1cc(Nc2ncc(Br)c(Nc3cnc4ccccc4c3P(C)(C)=O)n2)c(OC)cc1N1CCC(N2CCN(CCc3ccc4c(c3)C3(CC3)C(=O)N4C3CCC(=O)NC3=O)CC2)CC1 (stereo not drawn) [Example 24, 3-(5′-(2-(4-(1-(4-((5-bromo-4-((4-(dimethylphosphoryl)quinolin-3-yl)amino)pyrimidin-2-yl)amino)-2-ethyl-5-methoxyphenyl)piperidin-4-yl)piperazin-1-yl)ethyl)-2′-oxospiro[cyclopropane-1,3′-indolin]-1′-yl)piperidine-2,6-dione] | 27.5 | 89.6 | 2.88 | 84.3 |  |  |
| CCc1cc(Nc2ncc(Br)c(Nc3cnc4ccccc4c3P(C)(C)=O)n2)c(OC)cc1N1CCC(N2CCN(CC3CN(c4cc(F)c(C5CCC(=O)NC5=O)c(F)c4)C3)CC2)CC1 (stereo not drawn) [Example 19, 3-(4-(3-((4-(1-(4-((5-bromo-4-((4-(dimethylphosphoryl)quinolin-3-yl)amino)pyrimidin-2-yl)amino)-2-ethyl-5-methoxyphenyl)piperidin-4-yl)piperazin-1-yl)methyl)azetidin-1-yl)-2,6-difluorophenyl)piperidine-2,6-dione] | 8.02 | 89.4 | 4.24 | 97.44 |  |  |
| CCc1cc(Nc2ncc(Br)c(Nc3cnc4cccnc4c3P(C)(C)=O)n2)c(OC)cc1N1CCC(N2CCN(CCc3cc(F)c(C4CCC(=O)NC4=O)c(F)c3)CC2)CC1 (stereo not drawn) [Example 7, 3-(4-(2-(4-(1-(4-((5-bromo-4-((4-(dimethylphosphoryl)-1,5-naphthyridin-3-yl)amino)pyrimidin-2-yl)amino)-2-ethyl-5-methoxyphenyl)piperidin-4-yl)piperazin-1-yl)ethyl)-2,6-difluorophenyl)piperidine-2,6-dione] | 45.3 | 82.7 | 15.5 | 93.86 |  |  |
| CCc1cc(Nc2ncc(Br)c(Nc3cnc4ccccc4c3P(C)(C)=O)n2)c(OC)cc1N1CCC(N2CCN(C(=O)C3CCN(c4ccc5c(c4)C(C)(C)C(=O)N5C4CCC(=O)NC4=O)CC3)CC2)CC1 (stereo not drawn) [Example 17, 3-(5-(4-(4-(1-(4-((5-bromo-4-((4-(dimethylphosphoryl)quinolin-3-yl)amino)pyrimidin-2-yl)amino)-2-ethyl-5-methoxyphenyl)piperidin-4-yl)piperazine-1-carbonyl)piperidin-1-yl)-3,3-dimethyl-2-oxoindolin-1-yl)piperidine-2,6-dione] | 3.86 | 92.5 | 1.94 | 96.58 |  |  |
| CCc1cc(Nc2ncc(Br)c(Nc3cnc4c(C)cccc4c3P(C)(C)=O)n2)c(OC)cc1N1CCC(N2CCN(CCC3CCN(c4cc(F)c(C5CCC(=O)NC5=O)c(F)c4)CC3)CC2)CC1 (stereo not drawn) [Example 8, 3-(4-(4-(2-(4-(1-(4-((5-bromo-4-((4-(dimethylphosphoryl)-8-methylquinolin-3-yl)amino)pyrimidin-2-yl)amino)-2-ethyl-5-methoxyphenyl)piperidin-4-yl)piperazin-1-yl)ethyl)piperidin-1-yl)-2,6-difluorophenyl)piperidine-2,6-dione] | 30.2 | 89.6 | 11.8 | 96.88 |  |  |
| CCc1cc(Nc2ncc(Br)c(Nc3cnc4ccccc4c3P(C)(C)=O)n2)c(OC)cc1N1CCC(N2CCN(C(=O)C3CN(c4ccc5c(c4)CN(C4CCC(=O)NC4=O)C5=O)C3)CC2)CC1 (stereo not drawn) [Example 16, 3-(5-(3-(4-(1-(4-((5-bromo-4-((4-(dimethylphosphoryl)quinolin-3-yl)amino)pyrimidin-2-yl)amino)-2-ethyl-5-methoxyphenyl)piperidin-4-yl)piperazine-1-carbonyl)azetidin-1-yl)-1-oxoisoindolin-2-yl)piperidine-2,6-dione] | 5.05 | 89.7 | 2.14 | 96.98 |  |  |
| CCc1cc(Nc2ncc(Br)c(Nc3cnc4ccccc4c3P(C)(C)=O)n2)c(OC)cc1N1CCC(N2CCN(CCc3c(F)ccc4c3n(C)c(=O)n4C3CCC(=O)NC3=O)CC2)CC1 (stereo not drawn) [Example 159, 3-(4-(2-(4-(1-(4-((5-bromo-4-((4-(dimethylphosphoryl)quinolin-3-yl)amino)pyrimidin-2-yl)amino)-2-ethyl-5-methoxyphenyl)piperidin-4-yl)piperazin-1-yl)ethyl)-5-fluoro-3-methyl-2-oxo-2,3-dihydro-1H-benzo[d]imidazol-1-yl)piperidine-2,6-dione] |  |  |  |  | 1.4 | 85 |
| CCOc1cc(N2CCC(N3CCN(CCc4ccc5c(c4)oc(=O)n5C4CCC(=O)NC4=O)CC3)CC2)c(CC)cc1Nc1ncc(Br)c(Nc2cnc3cc(F)ccc3c2P(C)(C)=O)n1 (stereo not drawn) [Example 149, 3-(6-(2-(4-(1-(4-((5-bromo-4-((4-(dimethylphosphoryl)-7-fluoroquinolin-3-yl)amino)pyrimidin-2-yl)amino)-5-ethoxy-2-ethylphenyl)piperidin-4-yl)piperazin-1-yl)ethyl)-2-oxobenzo[d]oxazol-3(2H)-yl)piperidine-2,6-dione] |  |  |  |  | 1.3 | 73 |
